Test results published in ChEMBL document CHEMBL4630907 (2021).
The source made the active and inactive calls. The rule behind the calls is not given here.

Tests used:
[1] = target: GABA-A receptor; anion channel; test: GPCRScan assay: inhibition of GABAA/BZP; format: protein-complex assay, Rattus norvegicus; parameters: radioligand conc. used [nm] 0.6 – 4.0, parental cells brain tissue
[2] = target: T1, Bromodomain-containing protein 2 (Homo sapiens, UniProt P25440); test: BET mutant TR-FRET assay (BRD2 BD1)
Target sequence in this assay (P25440 whole entry, looked up, change not shown): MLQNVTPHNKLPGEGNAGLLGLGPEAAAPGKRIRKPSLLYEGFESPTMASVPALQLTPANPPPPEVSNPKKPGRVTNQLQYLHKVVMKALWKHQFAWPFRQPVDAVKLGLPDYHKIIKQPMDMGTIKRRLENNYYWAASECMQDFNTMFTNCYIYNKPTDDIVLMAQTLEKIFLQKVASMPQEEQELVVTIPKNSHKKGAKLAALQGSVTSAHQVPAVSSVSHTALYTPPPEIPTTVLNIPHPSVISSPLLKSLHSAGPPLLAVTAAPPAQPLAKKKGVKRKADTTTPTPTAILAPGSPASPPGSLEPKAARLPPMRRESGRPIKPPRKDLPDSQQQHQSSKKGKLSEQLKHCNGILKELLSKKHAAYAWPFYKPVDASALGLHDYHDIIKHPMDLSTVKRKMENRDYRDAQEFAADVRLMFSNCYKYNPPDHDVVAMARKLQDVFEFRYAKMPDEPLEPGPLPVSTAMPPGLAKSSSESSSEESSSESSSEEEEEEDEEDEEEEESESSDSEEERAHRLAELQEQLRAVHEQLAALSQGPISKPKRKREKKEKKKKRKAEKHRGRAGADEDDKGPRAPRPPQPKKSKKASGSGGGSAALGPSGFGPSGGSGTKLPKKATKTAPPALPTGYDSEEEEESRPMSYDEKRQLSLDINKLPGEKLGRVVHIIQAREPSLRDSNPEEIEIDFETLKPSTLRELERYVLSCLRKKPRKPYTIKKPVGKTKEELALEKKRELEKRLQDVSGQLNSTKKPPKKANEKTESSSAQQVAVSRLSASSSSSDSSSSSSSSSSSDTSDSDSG

[3] = target: T1, Bromodomain-containing protein 2; test: BET mutant TR-FRET assay (BRD2 BD2)
Target sequence in this assay (P25440 whole entry, looked up, change not shown): as above

[4] = target: T2, Bromodomain-containing protein 3 (Homo sapiens, UniProt Q15059); test: BET mutant TR-FRETassay (BRD3 BD1)
T2 sequence (Q15059 2-726 limits assumed, change not shown): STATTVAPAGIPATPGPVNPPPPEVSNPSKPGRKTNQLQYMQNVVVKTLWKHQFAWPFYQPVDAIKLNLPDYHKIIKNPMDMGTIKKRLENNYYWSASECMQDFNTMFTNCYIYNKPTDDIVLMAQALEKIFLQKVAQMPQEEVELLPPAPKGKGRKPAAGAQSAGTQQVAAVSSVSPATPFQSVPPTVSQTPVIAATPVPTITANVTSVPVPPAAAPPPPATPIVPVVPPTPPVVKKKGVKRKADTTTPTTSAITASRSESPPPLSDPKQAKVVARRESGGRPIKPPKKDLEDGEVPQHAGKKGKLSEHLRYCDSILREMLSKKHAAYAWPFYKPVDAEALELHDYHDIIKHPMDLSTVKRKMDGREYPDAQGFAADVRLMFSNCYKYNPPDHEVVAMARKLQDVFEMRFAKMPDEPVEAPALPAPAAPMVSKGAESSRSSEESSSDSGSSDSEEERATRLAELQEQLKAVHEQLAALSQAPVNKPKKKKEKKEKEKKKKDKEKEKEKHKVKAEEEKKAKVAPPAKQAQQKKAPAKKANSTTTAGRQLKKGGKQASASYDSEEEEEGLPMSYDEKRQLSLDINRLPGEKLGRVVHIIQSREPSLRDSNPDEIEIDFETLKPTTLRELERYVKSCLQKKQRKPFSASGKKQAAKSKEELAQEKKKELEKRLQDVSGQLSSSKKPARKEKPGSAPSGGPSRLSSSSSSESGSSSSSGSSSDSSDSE

[5] = target: T2, Bromodomain-containing protein 3; test: BET mutant TR-FRET assay (BRD3 BD2)
[6] = target: T1, Bromodomain-containing protein 2; test: BRD2 Bromoscan (DiscoverX)
Target sequence in this assay (P25440 whole entry): as the sequence (P25440 whole entry, looked up, change not shown) above

[7] = target: T1, Bromodomain-containing protein 2; test: BRD2(2) DiscoverX BROMOscan
Target sequence in this assay (P25440 whole entry): as the sequence (P25440 whole entry, looked up, change not shown) above

[8] = target: Bromodomain and PHD finger-containing protein 3 (Homo sapiens, UniProt Q9ULD4); test: BRPF3 DiscoverX BROMOscan
[9] = target: Chromatin remodeling regulator CECR2 (Homo sapiens, UniProt Q9BXF3); test: CECR2 DiscoverX BROMOscan
[10] = target: Histone acetyltransferase KAT2A (Homo sapiens, UniProt Q92830); test: GCN5L2 DiscoverX BROMOscan
[11] = target: Protein polybromo-1 (Homo sapiens, UniProt Q86U86); test: PBRM1(2) DiscoverX BROMOscan
[12] = target: Transcription initiation factor TFIID subunit 1 (Homo sapiens, UniProt P21675); test: TAF1(2) DiscoverX BROMOscan
[13] = target: Transcription intermediary factor 1-alpha (Homo sapiens, UniProt O15164); test: TRIM24(PHD,Bromo.) DiscoverX BROMOscan
[14] = target: E3 ubiquitin-protein ligase TRIM33 (Homo sapiens, UniProt Q9UPN9); test: TRIM33(PHD,Bromo.) DiscoverX BROMOscan
[15] = target: 5-hydroxytryptamine receptor 2C (Homo sapiens, UniProt P28335); test: (§1) Cross screening panel
Sequence of 5-hydroxytryptamine receptor 2C (P28335 whole entry): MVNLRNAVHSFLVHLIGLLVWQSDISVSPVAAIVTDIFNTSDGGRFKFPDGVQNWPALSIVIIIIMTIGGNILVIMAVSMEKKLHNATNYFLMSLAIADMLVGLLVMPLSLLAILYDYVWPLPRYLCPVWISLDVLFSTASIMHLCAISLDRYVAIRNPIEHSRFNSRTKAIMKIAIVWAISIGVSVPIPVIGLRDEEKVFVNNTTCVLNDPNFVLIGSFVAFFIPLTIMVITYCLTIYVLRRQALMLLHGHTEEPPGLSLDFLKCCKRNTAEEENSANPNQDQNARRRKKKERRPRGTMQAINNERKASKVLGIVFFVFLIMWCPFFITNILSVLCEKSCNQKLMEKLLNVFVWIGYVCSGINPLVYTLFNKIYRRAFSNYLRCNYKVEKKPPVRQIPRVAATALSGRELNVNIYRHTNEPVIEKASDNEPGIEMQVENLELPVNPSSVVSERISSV

[16] = target: Acetylcholine receptor subunit alpha (Homo sapiens, UniProt P02708); test: as §1
Sequence of Acetylcholine receptor subunit alpha (P02708 whole entry): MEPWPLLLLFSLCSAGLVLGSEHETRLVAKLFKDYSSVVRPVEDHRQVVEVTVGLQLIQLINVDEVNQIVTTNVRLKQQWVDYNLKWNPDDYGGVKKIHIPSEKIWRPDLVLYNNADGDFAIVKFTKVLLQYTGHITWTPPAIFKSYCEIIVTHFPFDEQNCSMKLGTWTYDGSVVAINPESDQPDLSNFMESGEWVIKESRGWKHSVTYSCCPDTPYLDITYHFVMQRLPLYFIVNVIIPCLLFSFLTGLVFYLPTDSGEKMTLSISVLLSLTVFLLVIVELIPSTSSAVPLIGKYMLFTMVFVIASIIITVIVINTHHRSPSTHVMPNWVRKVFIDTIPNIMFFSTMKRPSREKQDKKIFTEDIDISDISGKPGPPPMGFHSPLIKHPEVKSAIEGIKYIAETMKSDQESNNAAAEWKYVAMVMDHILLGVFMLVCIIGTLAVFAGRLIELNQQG

[17] = target: Acetylcholinesterase (Homo sapiens, UniProt P22303); test: as §1
[18] = target: Alpha-2C adrenergic receptor (Homo sapiens, UniProt P18825); test: as §1
[19] = target: Amine oxidase [flavin-containing] B (Homo sapiens, UniProt P27338); test: as §1
[20] = target: Beta-2 adrenergic receptor (Homo sapiens, UniProt P07550); test: as §1
Sequence of Beta-2 adrenergic receptor (P07550 whole entry): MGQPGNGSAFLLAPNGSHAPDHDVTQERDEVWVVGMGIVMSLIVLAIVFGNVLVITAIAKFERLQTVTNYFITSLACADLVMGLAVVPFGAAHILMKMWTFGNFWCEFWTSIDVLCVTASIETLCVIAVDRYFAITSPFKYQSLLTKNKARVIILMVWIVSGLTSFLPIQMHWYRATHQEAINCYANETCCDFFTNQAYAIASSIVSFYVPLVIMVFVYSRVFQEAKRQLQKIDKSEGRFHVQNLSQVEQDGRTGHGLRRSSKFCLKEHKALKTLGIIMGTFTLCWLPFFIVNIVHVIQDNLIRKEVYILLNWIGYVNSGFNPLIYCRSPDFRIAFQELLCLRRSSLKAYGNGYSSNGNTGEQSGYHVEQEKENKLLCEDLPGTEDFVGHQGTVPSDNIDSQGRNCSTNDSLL

[21] = target: Cytochrome P450 3A4 (Homo sapiens, UniProt P08684); test: as §1
[22] = target: Mu-type opioid receptor (Homo sapiens, UniProt P35372); test: as §1
[23] = target: Muscarinic acetylcholine receptor M1 (Homo sapiens, UniProt P11229); test: as §1
Sequence of Muscarinic acetylcholine receptor M1 (P11229 whole entry): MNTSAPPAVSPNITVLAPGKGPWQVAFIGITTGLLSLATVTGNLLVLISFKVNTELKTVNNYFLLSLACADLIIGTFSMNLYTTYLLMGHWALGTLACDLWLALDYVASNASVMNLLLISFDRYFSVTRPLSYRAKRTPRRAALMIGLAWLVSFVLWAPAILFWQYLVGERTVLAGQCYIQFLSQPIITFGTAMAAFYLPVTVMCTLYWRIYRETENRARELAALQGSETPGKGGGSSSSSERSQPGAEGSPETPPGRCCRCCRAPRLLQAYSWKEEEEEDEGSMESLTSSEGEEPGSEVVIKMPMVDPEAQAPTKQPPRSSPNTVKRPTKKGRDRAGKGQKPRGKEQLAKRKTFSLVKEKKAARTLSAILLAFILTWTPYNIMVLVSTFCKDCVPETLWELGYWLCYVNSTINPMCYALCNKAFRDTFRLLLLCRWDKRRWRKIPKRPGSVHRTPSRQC

[24] = target: Nuclear receptor subfamily 1 group I member 2 (Homo sapiens, UniProt O75469); test: as §1
[25] = target: Potassium voltage-gated channel subfamily A member 5 (Homo sapiens, UniProt P22460); test: as §1
[26] = target: Sodium channel protein type 5 subunit alpha (Homo sapiens, UniProt Q14524); test: as §1
[27] = target: Sodium-dependent noradrenaline transporter (Homo sapiens, UniProt P23975); test: as §1
Sequence of Sodium-dependent noradrenaline transporter (P23975 whole entry): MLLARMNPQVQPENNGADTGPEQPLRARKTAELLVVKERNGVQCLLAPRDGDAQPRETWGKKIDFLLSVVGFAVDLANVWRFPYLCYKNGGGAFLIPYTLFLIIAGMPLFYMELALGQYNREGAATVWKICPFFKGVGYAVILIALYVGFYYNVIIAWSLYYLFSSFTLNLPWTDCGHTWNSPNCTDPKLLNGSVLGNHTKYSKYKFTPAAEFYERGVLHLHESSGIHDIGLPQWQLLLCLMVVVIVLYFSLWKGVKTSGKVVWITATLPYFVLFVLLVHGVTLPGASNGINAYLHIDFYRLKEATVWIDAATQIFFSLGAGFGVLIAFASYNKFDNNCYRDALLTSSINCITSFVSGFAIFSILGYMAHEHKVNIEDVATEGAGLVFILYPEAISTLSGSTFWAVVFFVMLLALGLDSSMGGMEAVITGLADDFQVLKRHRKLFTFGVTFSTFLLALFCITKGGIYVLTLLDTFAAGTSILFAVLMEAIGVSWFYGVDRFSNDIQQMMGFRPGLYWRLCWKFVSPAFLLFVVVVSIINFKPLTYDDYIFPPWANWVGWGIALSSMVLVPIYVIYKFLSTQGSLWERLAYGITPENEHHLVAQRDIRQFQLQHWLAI

[28] = target: Solute carrier organic anion transporter family member 1B1 (Homo sapiens, UniProt Q9Y6L6); test: as §1
[29] = target: Substance-P receptor (Homo sapiens, UniProt P25103); test: as §1
[30] = target: Tyrosine-protein kinase Lck (Homo sapiens, UniProt P06239); test: as §1
[31] = target: Voltage-gated inwardly rectifying potassium channel KCNH2 (Homo sapiens, UniProt Q12809); test: as §1
[32] = target: 5-hydroxytryptamine receptor 1A (Homo sapiens) (UniProt P08908); settings: Compound concentration 10.0 uM
[33] = target: 5-hydroxytryptamine receptor 5A (Homo sapiens) (UniProt P47898); settings: Compound concentration 10.0 uM
[34] = target: 5-hydroxytryptamine receptor 7 (Homo sapiens) (UniProt P34969); settings: Compound concentration 10.0 uM
[35] = target: D(3) dopamine receptor (Homo sapiens, UniProt P35462); settings: Compound concentration 10.0 uM
[36] = target: Alpha-2A adrenergic receptor (Homo sapiens) (UniProt P08913); settings: Compound concentration 10.0 uM
[37] = species: Rattus norvegicus; settings: Compound concentration 10.0 uM
[38] = target: Alpha-1D adrenergic receptor (Homo sapiens) (UniProt P25100); settings: Compound concentration 10.0 uM
[39] = target: Sigma non-opioid intracellular receptor 1 (Homo sapiens) (UniProt Q99720); settings: Compound concentration 10.0 uM

COCc1nc2cnc3cc(-c4c(C)noc4C)c(OC[C@H]4CCNC4)cc3c2n1[C@H](C)c1ccccc1 [GSK778]
Ki [1]: 1.97 µM
pKi [1]: 5.75
pIC50 [2]: 7.1
pIC50 [3]: 5.5
pIC50 [4]: 7.4
pIC50 [5]: 6
Kd [6]: 0.013 µM (active)
Kd [7]: 0.84 µM
Kd [8]: 30 µM
Kd [9]: 30 µM
Kd [10]: 30 µM
Kd [11]: 29 µM
Kd [12]: 30 µM
Kd [13]: 30 µM
Kd [14]: 30 µM
EC50 [15]: > 25.1 µM
IC50 [15]: > 25.1 µM
EC50 [16]: > 50.1 µM
IC50 [16]: 1 µM
IC50 [17]: 63.1 µM
EC50 [18]: > 100 µM
IC50 [19]: 79.4 µM
EC50 [20]: > 100 µM
IC50 [20]: > 100 µM
IC50 [21]: 6.31 µM
EC50 [22]: > 100 µM
EC50 [23]: > 50.1 µM
IC50 [23]: > 50.1 µM
EC50 [24]: > 50.1 µM
IC50 [25]: > 50.1 µM
IC50 [26]: 50.1 µM
IC50 [27]: 20 µM
IC50 [28]: 39.8 µM
IC50 [29]: > 25.1 µM
IC50 [30]: > 31.6 µM
IC50 [31]: 39.8 µM
inhibition [32]: 15.3%
inhibition [33]: 21.5%
inhibition [34]: -5.39%
inhibition [35]: 62.4%
inhibition [36]: 9.95%
inhibition [37]: 7.75%
inhibition [38]: 17%
inhibition [39]: 38.5%
